In patent publication US10945951B2, “Apparatus for compound dispersion” (Biogen MA Inc., priority 2014, dated 2021):

Key:
[1] = SPECT imaging of two probes injected in a single bolus into lumbar cistern and cisterna magna; assay type: in vivo, rat; conditions: single 20 ml bolus, lumbar cistern and cisterna magna injection
Experimental: Two different probes including different isotopes were injected via a single […] bolus into rodents and then imaged at different energies. […] FIG. 8B depicts a structure of the second mitochondria targeting probe ^99mTc-Sestamibi. The bolus was injected into the lumbar cistern and the cisterna magna to help distinguish uptake into interstitial spaces versus uptake into intracellular compartments, see FIG. 8C. […] Consequently, it is apparent that the cell affinity of a compound for the structures and tissue within the CNS should be considered when determining the optimal parameters, such as injection site, bolus volume, and the applied forces, needed to ensure a compound reaches a desired target site.

[2] = 20 μl bolus, intrathecal
Experimental: The same amount of each probe was used in each injected bolus. However, the total bolus volumes for the separate injections were 20 μl and 30 μl followed by a 40 μl saline flush. The boluses were injected intrathecally into rodents and the concentration of the two probes was monitored at the lumbar, thoracic, and cervical regions.

[3] = Live imaging of intrathecally injected Gd-DTPA in dog; assay type: in vivo
Experimental: For this experiment, an adult male two-year-old beagle was intrathecally injected at the L4-L5 space and live imaging was performed under anesthesia for five hours.
FIGS. 15C-15G show the signal counts corresponding to the presence of Gd-DTPA over the five hour monitoring period. The various monitored locations included the hippocampus, spinal column, substantia nigra, cortex, and striatum.

[4] = PET imaging of distribution of lumbar intrathecally injected 64Cu-DOTA, bolus volume and respiratory vest force; assay type: in vivo, Cynomolgus monkeys; conditions: lumbar intrathecal
Experimental: The ability of a time varying force applied to the torso of a patient and increased bolus volumes to enhance CNS exposure of intrathecally injected compounds was tested in cynomolgus monkeys. Specifically, live whole animal positron emission tomography (PET) imaging was used to monitor the distribution of intrathecally injected ^64Cu-DOTA given as a compound surrogate. This approach allowed the direct imaging of the impact of the convective force on compound spread in CSF and the exposure of the primate CNS to the compound. During the experiments, Cynomolgus monkeys were given a lumbar intrathecal injection of ^64Cu-DOTA in a volume of either 0.36 ml (about 3% of the total CSF volume) or 1.86 ml (about 15% of the total CSF volume), see FIG. 6. The 3% total CSF volume was chosen to mimic a typical lumbar intrathecal injection volume of about 5 ml that is used clinically. Following lumbar intrathecal injection, the animals were placed in a respiratory vest for 20 minutes. The vest was turned on for 20 minutes only for those animals in which the effect of the time varying force enhanced convection was tested. Animals wearing the vest without activating the time varying force feature served as controls. Animals were then imaged with PET scanning for a time window of 30-60 min post dosing.

Compound: ^111In-DTPA
- distribution along the CNS [1]: showed distribution from the injection site towards the head of the rodent along the CNS

Compound: [C-]#[N+]CC(C)(C)OC.[C-]#[N+]CC(C)(C)OC.[C-]#[N+]CC(C)(C)OC.[C-]#[N+]CC(C)(C)OC.[C-]#[N+]CC(C)(C)OC.[C-]#[N+]CC(C)(C)OC.[Tc] [^99mTc-Sestamibi]
- concentration in the lumbar region at injection [2]: initially high concentration
- concentration over time in the thoracic and cervical regions [2]: did not increase
- distribution along the CNS [1]: showed very little distribution along the CNS

Compound: O=C([O-])CN(CCN(CC(=O)[O-])CC(=O)O)CCN(CC(=O)[O-])CC(=O)O.[Gd+3] [Gd-DTPA]
- signal intensity over time in hippocampus, spinal column, substantia nigra, cortex and striatum ([3]; intrathecal injection at L4-L5, five hour monitoring period): increase in the measured signal intensity over time
- location in the brain (cellular uptake vs interstitial spaces) ([3]; intrathecal injection at L4-L5, live imaging five hours): not taken up into the cells but instead was located in the interstitial spaces of the brain

Compound: O=C([O-])CN1CCN(CC(=O)O)CCN(CC(=O)[O-])CCN(CC(=O)O)CC1.[64Cu+2] [^64Cu-DOTA]
- CNS exposure / compound spread in CSF ([4]; 3% CSF volume (0.36 ml), respiratory vest turned on 20 minutes, PET 30-60 min post dosing): the entire spinal cord, and brainstem displayed exposure
- CNS exposure / compound spread in CSF ([4]; 3% CSF volume (0.36 ml), vest not turned on, PET 30-60 min post dosing): only reached the lower thoracic spinal cord
- CNS exposure / compound spread in CSF ([4]; 15% CSF volume (1.86 ml), combined with time varying forces of the vest): greatest rostral spread
- CNS exposure / compound spread in CSF ([4]; 15% CSF volume (1.86 ml), vest not activated, PET 30-60 min post dosing): exposure over the entire spinal cord and portions of the brainstem
